Experiments:
[1] = test system: PAF-Induced Platelet Count Decrease; assay: PAF Induced Platelet Count Decrease; type: in vivo, guinea pig; conditions: for inhibition in vivo at 3 mg/kg: Cavia porcellus, Platelet, 3 mg/Kg (route not given), read-out: Percent Inhib. of PAF-Induced Platelet Count Decrease, 3 mg/Kg
Protocol: PAF Induced Platelet Count Decrease
Male Hartley guinea pigs weighing between 500 and 900 grams were fed standard guinea pig chow and tap water ad libitum. PAF was solubilized in ethanol and stored as a 2 mM stock solution at -70° C. The stock solutuion of PAF was diluted to 1 pM in Tris buffer pH 7.4 and 0.1% BSA for all experiments.
(a) Intravenous Procedure
Guinea pigs were anesthetized with urethane (1.6 g/kg, i.p.). A catheter (PE50) was introduced into the right carotid artery for withdrawing blood. A second catheter PE10) was introduced into the jugular vein for injecting drugs and for administering the PAF challenge (75 ng/kg, i.v.). A control blood sample was obtained and platelets were counted in a whole blood platelet analyzer. PAF was then given and blood samples were taken 15, 30, and 60 seconds after the challenge for platelet counts. Fifteen minutes later, selected concentrations of the test compound were solubilized in DMSO and injected intravenously into a group of 4-6 animals. Only one concentration of antagonist was used in each animal group. Fifteen minutes after drug injection, blood smaples were taken before and 15, 30, and 60 sec after the PAF challenge, and analyzed for platelet number.
Animals were anesthetized with sodium pentobarbital (35 mg/kg. i.p.) and the caritoid artery and jugular vein were cannulated as described above. The cannulae were exteriorized at the base of the neck and the animals were allowed to recover. At least 18 hours after surgery, conscious unrestrained guinea pigs were used in the experiment. The animals were challenged two time with PAF (120 ng/kg. i.v.); the first to establish a consistent response to PAF and the second to serve as a control for the PAF challenge. Blood samples were taken before and 15, 30, and 45 seconds after PAF challenge and platelets were counted. Thirty minutes after the control PAF challenge, the animal were orally dosed with either gum acacia or the test compound. Animals were then challenged with PAF at 1, 3, 5, and 24 hours after the administration of the drug.
Data Analysis and Statistics
The % change, i.e., the difference in platelet number before and after PAF challenge was calculated by: [formula]
Statistical significance (p<0.05) of the difference between the mean PAF control and mean drug treated activity was determined with paried Students's t-test.

[2] = test system: PAF-Induced Bronchoconstriction; assay: PAF Induced Bronchoconstriction Assay; type: in vivo, guinea pig; conditions: for inhibition in vivo at 50 mg/kg: Cavia porcellus, po, 2-hour pretreatment, read-out: Percent Inhib. of PAF-Induced Bronchoconstriction, 50 mg/Kg p.o.; for Percent Inhib. of PAF-Induced Bronchoconstriction, mg/Kg i.v.: i.v. (dose not given), 1 minute pretreatment, PAF 1.0 μg/kg i.v.
Procedure, shortened: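 Male Hartley guinea pigs, urethane-anesthetized (2 g/kg i.p.), ventilated, with succinylcholine 1.2 mg/kg i.v. and propranolol 0.1 mg/kg i.v. pretreatment. Compound given i.v. 1 min or by oral gavage 2 h before i.v. PAF challenge at 1.0 μg/kg. Peak tracheal pressure rise over baseline compared with control mean gives % inhibition.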

[3] = target: T1, PAF Binding, dog platelets (Canis lupus familiaris, UniProt A0A8I3NSH0); assay: PAF Binding Assay (inhibition of 3H-PAF binding to washed dog platelets); conditions: dog platelets, 3H-PAF, 10 minutes at room temperature; read-out: Inhib of PAF Binding IC50
T1 construct: Washed platelets were prepared by resuspending the platelet pellet once with PBS containing 1 mM EDTA; from tissue; host or cells: washed platelets from dog blood
T1 sequence (A0A8I3NSH0 1-343): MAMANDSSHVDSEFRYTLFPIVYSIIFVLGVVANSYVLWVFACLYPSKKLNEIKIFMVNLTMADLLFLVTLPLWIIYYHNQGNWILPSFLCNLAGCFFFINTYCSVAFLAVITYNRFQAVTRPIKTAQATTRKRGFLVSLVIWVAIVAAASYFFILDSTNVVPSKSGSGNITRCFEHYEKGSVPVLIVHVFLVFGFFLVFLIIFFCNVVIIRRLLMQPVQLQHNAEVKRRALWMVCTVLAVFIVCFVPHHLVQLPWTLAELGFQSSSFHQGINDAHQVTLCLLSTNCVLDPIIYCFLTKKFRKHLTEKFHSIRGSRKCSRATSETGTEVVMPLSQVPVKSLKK
Protocol: The binding assay was done in 400 μl polyethylene microcentrifuge tubes (Beckman) containing 50 μl of an oil mixture of 2 parts Siliconol AR200 (Serva): 1 part Silicone Fluid (Arthur H. Thomas). Buffer, standards, or analogs (150 μl total volume) were added to the tubes. Radiolabelled ^3 H-PAF (50 μl) was then added to the tubes. The reaction was started by the addition of 50 μl of dog platelets (2×10^7 platelets). The tubes were capped, inverted several times to mix, and incubated for 10 minutes at room temperature. The platelets were separated from the incubation mixture by centrifuging 1 minute in a Beckman Microfuge B centrifuge. The tip of the microfuge tube was cut off, and the platelets were washed out of the tip with 200 μl of 50% methanol (Burdick and Jackson). Aquasol (NEN, 10 ml) was added and the radioactivity in the samples was determined using an LS 8100 Beckman liquid scintillation counter linked to a Techtran tape recorder. Data was processed through an in-house computer system. Alternatively, radioactivity was determined using a Searle Mark III liquid scintillation counter linked to a Iso-Data microprocessor.
(b) Preparation of Platelets
Blood was collected from anesthesized or unanesthesized dogs into 50 ml plastic centrifuge tubes containing 3.8% sodium citrate as the anticoagulant (1 volume of citrate/9 volumes of blood). The red cells were removed by centrifugation for 15 minutes at 600 rpm (100-125 g) at room temperature. An aliquot of the supernatant platelet rich plasma (PRP) was saved for cell counting and the remainder was acidified to PH 6.5 with 0.15M citric acid. The platelet pellet was obtained after a 10 minute centrifugation at 2000 rpm (1000 g) at room temperature. Washed platelets were prepared by resuspending the platelet pellet once with PBS containing 1 mM EDTA, centrifuging as noted, and then resuspending the platelets in 0.1% BSA-PBS. An aliquot of the washed platelets was counted. Platelets used for binding assays were diluted to 2×10^7 platelets/assay tube (4×10^8 platelets/ml). Platelet counting was done using a Royco Cell-Crit 921.

| IC50 [3] | Compound | inhibition in vivo at 3 mg/kg [1] | inhibition in vivo at 50 mg/kg ([2]; 50 mg/Kg p.o.) | Percent Inhib. of PAF-Induced Bronchoconstriction, mg/Kg i.v. [2] | Percent Inhib. of PAF-Induced Platelet Count Decrease, 30 mg/Kg p.o. ([1]; 30 mg/Kg p.o.) | Percent Inhib. of PAF-Induced Bronchoconstriction, 50 mg/Kg p.o. (6 hr) ([2]; 50 mg/Kg p.o., (6 hr)) |
| --- | --- | --- | --- | --- | --- | --- |
|  | O=C(/C=C/C=C(c1cccc(Cl)c1)c1cccc(Cl)c1)NCCCCc1cccnc1 [(E)-5,5-bis(3-chlorophenyl)-N-[4-(3-pyridinyl)butyl]-2,4-pentadienamide] | 21% | 35 ± 7% | 76 ± 14% |  |  |
|  | C[C@H](CCCc1cccnc1)NC(=O)/C=C/C=C(c1ccc(F)cc1)c1ccc(F)cc1 [[R-(E)]-5,5-bis (4-fluorophenyl)-N-[1-methyl-4-(3-pyridinyl)butyl]-2,4-pentadienamide] | 11% | 53 ± 11% | 70 ± 9% |  |  |
|  | C[C@H](CCCc1cccnc1)NC(=O)/C=C/C=C(c1cccc(F)c1)c1cccc(F)c1 [[R-(E)]-5,5-bis(3-fluorophenyl)-N-[1-methyl-4-(3-pyridinyl)butyl]-2,4-pentadienamide] | 17% | 91 ± 5% | 73 ± 6% |  |  |
|  | COc1ccc(C(=C/C=C/C(=O)N[C@H](C)CCCc2cccnc2)c2ccc(OC)cc2)cc1 [[R-(E)]-5,5-bis(4-methoxyphenyl)-N-[1-methyl-4-(3-pyridinyl)butyl]-2,4-pentadienamide] | 85% | 97 ± 2% | 87 ± 4% | 81% |  |
| 30 nM | COc1ccc(/C(=C/C=C/C(=O)N[C@H](C)CCCc2cccnc2)C(C)C)cc1 [[R-(E,E)]-5-(4-methoxyphenyl)-6-methyl-N-[1-methyl-4-(3-pyridinyl)butyl]-2,4-heptadienamide] |  |  | 38 ± 11% |  |  |
| 45 nM | CCCCCCCCCCCC/C(=C\C=C\C(=O)N[C@H](C)CCCc1cccnc1)c1ccc(OC)cc1 [[R-(E,E)]-5-(4-methoxyphenyl)-N-[1-methyl-4-(3-pyridinyl)butyl]-2,4-heptadecadienamide] |  |  | 28 ± 2% |  |  |
| 30 nM | CC/C(=C\C=C\C(=O)N[C@H](C)CCCc1cccnc1)c1ccc(OC)cc1 [[R-(E,E)]-5-(4-methoxyphenyl)-N-[1-methyl-4-(3-pyridinyl)butyl]-2,4-heptadienamide] |  | 84 ± 2% | 72 ± 13% |  |  |
| 25 nM | COc1ccc(/C(C)=C/C=C/C(=O)N[C@H](C)CCCc2cccnc2)cc1 [[R-(E,E)]-5-(4-methoxyphenyl)-N-[1-methyl-4-(3-pyridinyl)butyl]-2,4-hexadienamide] |  |  | 42 ± 16% |  |  |
| 14 nM | CCCC/C(=C\C=C\C(=O)N[C@H](C)CCCc1cccnc1)c1ccc(OC)cc1 [[R-(E,E)]-5-(4-methoxyphenyl)-N-[1-methyl-4-(3-pyridinyl)butyl]-2,4-nonadienamide] |  | 98 ± 1% | 99 ± 1% |  |  |
| 50 nM | CCC/C(=C\C=C\C(=O)N[C@H](C)CCCc1cccnc1)c1ccc(OC)cc1 [[R-(E,E)]-5-(4-methoxyphenyl)-N-[1-methyl-4-(3-pyridinyl)butyl]-2,4-octadienamide] |  | 9 ± 13% | 86 ± 7% |  |  |
| 30 nM | COc1ccc(/C=C/C=C/C(=O)N[C@H](C)CCCc2cccnc2)cc1 [[R-(E,E)]-5-(4-methoxyphenyl)-N-[1-methyl-4-(3-pyridinyl)butyl]-2,4-pentadienamide] |  |  | 17 ± 13% |  |  |
| 5 nM | CCCCCCCC/C(=C\C=C\C(=O)N[C@H](C)CCCc1cccnc1)c1ccc(OC)cc1 [[R-(E,E)]-5-(4-methoxyphenyl)-N-[1-methyl-4-(3-pyridinyl)butyl]-2,4-tridecadienamide] |  | 84 ± 8% | 98 ± 1% |  |  |
| 9 nM | CCCCCC/C(=C\C=C\C(=O)N[C@H](C)CCCc1cccnc1)c1ccc(OC)cc1 [[R-(E,E)]-5-(4-methoxyphenyl)-N-[1-methyl-4-(3-pyridinyl)butyl]-2,4-undecadienamide] |  | 96 ± 1% | 100 ± 1% |  |  |
| 20 nM | COc1ccc(/C(=C/C=C/C(=O)N[C@H](C)CCCc2cccnc2)C2CCCCC2)cc1 [[R-(E,E)]-5-cyclohexyl-5-(4-methoxyphenyl)-N-[1-methyl-4-(3-pyridinyl)butyl]-2,4-pentadienamide] |  | 97 ± 1% | 73 ± 17% |  | 12 ± 10% |
| 50 nM | COc1ccc(/C(=C/C=C/C(=O)N[C@H](C)CCCc2cccnc2)C2CC2)cc1 [[R-(E,E)]-5-cyclopropyl-5-(4-methoxyphenyl)-N-[1-methyl-4-(3-pyridinyl)butyl]-2,4-pentadienamide] |  |  | 35 ± 5% |  |  |
|  | C[C@@H](CCCc1cccnc1)NC(=O)/C=C/C=C(c1cccc(F)c1)c1cccc(F)c1 [[S-(E)]-5,5-bis(3-fluorophenyl)-N-[1-methyl-4-(3-pyridinyl)butyl]-2,4-pentadienamide] | 19% | 46 ± 8% | 34 ± 7% |  |  |
|  | COc1ccc(C(=C/C=C/C(=O)N[C@@H](C)CCCc2cccnc2)c2ccc(OC)cc2)cc1 [[S-(E)]-5,5-bis(4-Methoxyphenyl)-N-[1-methyl-4-(3-pyridinyl)butyl]-2,4-pentadienamide] | 42% | 90 ± 6% | 42 ± 13% |  |  |
| 400 nM | CC[C@@H](CCCc1cccnc1)NC(=O)/C=C/C=C(c1ccc(OC)cc1)c1ccc(OC)cc1 [[S-(E)]-N-[1-ethyl-4-(3-pyridinyl)butyl]-5,5-bis (4-methoxyphenyl)-2,4-pentadienamide] |  |  | 44 ± 8% |  |  |
| 120 nM | CCCCC/C(=C\C=C\C(=O)N[C@@H](C)CCCc1cccnc1)c1ccc(OC)cc1 [[S-(E,E)]-5-(4-methoxyphenyl)-N-[1-methyl-4-(3-pyridinyl)butyl]-2,4-decadienamide] |  | 25 ± 13% | 46 ± 16% |  |  |

Source: patent US4788206A, “Pentadieneamides” (Hoffmann-La Roche Inc., priority 1987, dated 1988)
